In brackets after ≈: the same amount, converted by molar mass. Peptide text beside a SMILES is read from it. * marks the point of attachment. Cbz = O=C(OCc1ccccc1)*
Tests used:
Assay type in all cases: cell-based
Mycobacterium bovis BCG = assay: microbe, parasite or virus in culture
M. tuberculosis H37Rv = assay: microbe, parasite or virus in culture; conditions: Mycobacterium tuberculosis, 120 h
M. smegmatis [1] = tested on: M. smegmatis
M. smegmatis [2] = assay: microbe, parasite or virus in culture
WT M. smegmatis = conditions: subinhibitory, 24 h, OD600
[3] = tested on: caseinolytic protease substrate WhiB1 (M. smegmatis pTet-GFP-WhiB1)

## CC(C)C[C@H](NC(=O)[C@H](Cc1ccccc1)NC(=O)c1cnccn1)B(O)O [compound 100, bortezomib]
Mycobacterium bovis BCG
  Growth inhibition of WT M. bovis, in words: strongest growth inhibition
Mycobacterium bovis BCG; Mycobacterium tuberculosis variant bovis BCG, BCG, 120 h
  MIC50: 0.3 µM (≈ 0.115 µg/mL)
M. tuberculosis H37Rv
  MIC50: 0.8 µM (≈ 0.307 µg/mL)
M. smegmatis [1]
  MBC90 (minimum bactericidal concentration that kills 90% of an initial inoculum): 30 µM
M. smegmatis [2]
  Growth inhibition of WT M. smegmatis, in words: showed an effect
M. smegmatis [2]; Mycolicibacterium smegmatis, 24 h
  MIC50: 4 µM (≈ 1.54 µg/mL)
WT M. smegmatis; BZ 1.5 µM + amikacin 0.4 µM
  Growth inhibition in combination with amikacin: complete growth inhibition
WT M. smegmatis; BZ 1.5 µM + chloramphenicol 4.5 µM
  Potentiation of chloramphenicol: no potentiation effect
WT M. smegmatis; BZ 1.5 µM + streptomycin 0.05 µM
  Growth inhibition in combination with streptomycin: complete growth inhibition
[3]
  GFP-WhiB1 fluorescence: increased fluorescence in a dose-dependent manner

## CC(C)C[C@H](NC(=O)[C@@H](NC(=O)c1cccc(-c2ccccc2)n1)[C@@H](C)O)B(O)O [CEP-18770]
Mycobacterium bovis BCG
  Growth inhibition of WT M. bovis, in words: strongest growth inhibition
M. smegmatis [2]
  Growth inhibition of WT M. smegmatis, in words: same potent growth inhibition as BZ

## CC(C)C[C@H](NC(=O)CNC(=O)c1cc(Cl)ccc1Cl)B1OC(=O)C(CC(=O)O)(CC(=O)O)O1 [MNL-9708]
M. smegmatis [2]
  Growth inhibition of WT M. smegmatis, in words: active

## CC(C)C[C@@H](C=O)NC(=O)[C@H](CC(C)C)NC(=O)[C@H](CC(C)C)NC(=O)OCc1ccccc1 [MG-132] (Cbz-Leu-Leu-Leu-aldehyde)
Mycobacterium bovis BCG
  Growth inhibition of WT M. bovis, in words: no response
M. smegmatis [2]
  Growth inhibition of WT M. smegmatis, in words: completely abrogated

## CC(C)C[C@H](NC(=O)CNC(=O)c1cc(Cl)ccc1Cl)B(O)O [MNL-2238]
M. smegmatis [2]
  Growth inhibition of WT M. smegmatis, in words: weaker growth inhibition
